From patent US20110086837A1, “COMBINATIONS OF A PI3K INHIBITOR AND A MEK INHIBITOR” (Genentech, Inc., priority 2009, published 2011)

Experiments:
MOLM-16 (AML) tumors = assay: MOLM-16 xenograft model, tumor growth inhibition; assay type: in vivo, nude mice (nu/nu)
Procedure: (A) Treatment was then begun dosing Vehicle (open circles)), GDC-0941 (100 mg/kg, QD, PO; filled triangles), GDC-973 (10 mg/kg, QD, PO; filled squares), or the combination of GDC-0941 and GDC-0973 (filled diamonds, solid lines, n=7). […] Treatment was then begun dosing Vehicle (open circles,), GDC-0941 (100 mg/kg, QD, PO; filled triangles), GDC-0973 (5 mg/kg, QD, PO; filled squares), or the combination of GDC-0941 and GDC-0973 (filled diamonds). Caliper measurements of animals' tumors and animal weights were taken every 3-4 days throughout the study and tumor volumes were calculated (TV=[L×(W^2)]/2) and plotted +/−SEM. Percent tumor growth inhibition was calculated by calculating the area under the curve (AUC) of each treatment group relative to vehicle control. Student's t-tests were performed on day 21 data to determine significance by p-value.
MOLM-16 (AML) tumor-bearing animals were treated with either single agent GDC-0973 (10 mg/kg, daily) or GDC-0941 (100 mg/kg, daily) or the combination of the two.

SKOV-3 (Ovarian) tumors = assay: SKOV-3 xenograft model, tumor growth inhibition; assay type: in vivo; conditions: GDC-0941 single agent, 100 mg/kg daily
Procedure: (B) the […] (ovarian) Xenograph model.
SKOV-3 (Ovarian) tumor-bearing animals were treated with either single agent GDC-0973 (10 mg/kg, daily) or GDC-0941 (100 mg/kg, daily) or the combination of the two. […] The improved efficacy of the combination was statistically significant versus single agent GDC-0973 and GDC-0941 (p=0.0017 and p=0.0283, respectively, on Day 22).

[1] = test system: A2058 (Melanoma, BRAF V600E, PTEN null) tumors; assay: A2058 xenograft model, tumor growth inhibition; assay type: in vivo, nude mice (nu/nu); conditions: for sensitivity as single agent: A2058 xenograft, tumor growth delay, but not stasis or regression
Procedure: A2058 tumor-bearing animals were tested with both moderate and high doses of GDC-0973 (6 and 10 mg/kg, daily) and GDC-0941 (30 and 100 mg/kg, daily) as well as combinations of the lower and higher doses. […] Likewise, A2058 tumors are also moderately sensitive to single agent GDC-0941 with TGIs of 18% at 30 mg/kg and 56% at 100 mg/kg (FIGS. 3A and B, respectively).

[2] = test system: NCI-H2122 (NSCLC, KRAS G12C, PI3K/PTEN WT) tumors; assay: NCI-H2122 xenograft model, tumor growth inhibition; conditions: for sensitivity as single agent: NCI-H2122 xenograft, tumor growth delay, but not stasis or regression
Procedure: NCI-H2122 cells (10×10^6 in Hanks Balance Salt Solution (HBSS)+Matrigel) were inoculated into nude mice (nu/nu) and tumors were allowed to establish to an average volume of ˜240 mm^3. […] Caliper measurements of animals' tumors and animal weights were taken every 3-4 days throughout the study and tumor volumes were calculated (TV=[L×(W^2)]/2) and plotted +/−SEM. Percent tumor growth inhibition was calculated by calculating the area under the curve (AUC) of each treatment group relative to vehicle control. Student's t-tests were performed on day 21 data to determine significance by p-value.
GDC-0973 and GDC-0941 were used as therapeutic agents in the NCI-H2122 (NSCLC, KRAS^G12C, PI3K/PTEN WT) and A2058 (Melanoma, BRAF^V600E, PTEN^null) xenograft models. […]

FaDu (HNSCC) tumors = assay: FaDu xenograft model, tumor growth inhibition; assay type: in vivo
Procedure: (A) Treatment was then begun dosing Vehicle (open circles)), GDC-0941 (100 mg/kg, QD, PO; filled triangles), GDC-973 (5 mg/kg, QD, PO; filled squares), or the combination of GDC-0941 and GDC-0973 (filled diamonds, solid lines, n=7). (B) the SKOV-4 (ovarian) Xenograph model. Treatment was then begun dosing Vehicle (open circles,), GDC-0941 (100 mg/kg, QD, PO; filled triangles), GDC-0973 (10 mg/kg, QD, PO; filled squares), or the combination of GDC-0941 and GDC-0973 (filled diamonds). Caliper measurements of animals' tumors and animal weights were taken every 3-4 days throughout the study and tumor volumes were calculated (TV=[L×(W^2)]/2) and plotted +/−SEM. Percent tumor growth inhibition was calculated by calculating the area under the curve (AUC) of each treatment group relative to vehicle control. Student's t-tests were performed on day 21 data to determine significance by p-value.
FaDu (HNSCC) tumor-bearing animals were treated with either single agent GDC-0973 (5 mg/kg, daily) or GDC-0941 (100 mg/kg, daily) or the combination of the two.

[3] = GDC-0941 single agent, 100 mg/kg daily
[4] = GDC-0973 single agent, 10 mg/kg daily

Row | SMILES | percent tumor growth inhibition (% TGI) (MOLM-16 (AML) tumors; [3]) [%] | % TGI (SKOV-3 (Ovarian) tumors) [%] | sensitivity as single agent [1] | TGI ([1]; GDC-0941 single agent, 30 mg/kg daily) [%] | TGI [1, 3] [%] | tumor growth inhibition (TGI, relative to vehicle control) ([2]; GDC-0941 single agent, 30 mg/kg arm (so in the source)) [%] | sensitivity as single agent [2] | percent tumor growth inhibition (% TGI) (FaDu (HNSCC) tumors; [3]) [%] | percent tumor growth inhibition (% TGI) (MOLM-16 (AML) tumors; [4]) [%] | TGI ([1]; GDC-0973 single agent, 6 mg/kg daily) [%] | TGI [1, 4] [%] | tumor growth inhibition (TGI, relative to vehicle control) ([2]; GDC-0973 single agent, 5 mg/kg QD arm) [%] | percent tumor growth inhibition (% TGI) (FaDu (HNSCC) tumors; GDC-0973 single agent, 5 mg/kg daily) [%]
1 | CS(=O)(=O)N1CCN(Cc2cc3nc(-c4cccc5[nH]ncc45)nc(N4CCOCC4)c3s2)CC1 [GDC-0941, 4-(2-(1H-indazol-4-yl)-6-((4-(methylsulfonyl)piperazin-1-yl)methyl)thieno[3,2-d]pyrimidin-4-yl)morpholine] | 40 | 51 | moderate sensitivity | 18 | 56 | 73 | moderate sensitivity | 33 | – | – | – | – | –
2 | O=C(c1ccc(F)c(F)c1Nc1ccc(I)cc1F)N1CC(O)([C@@H]2CCCCN2)C1 [GDC-0973, [3,4-Difluoro-2-(2-fluoro-4-iodo-phenylamino)-phenyl]-((S)-3-hydroxy-3-piperidin-2-yl-azetidin-1-yl)-methanone] | – | – | moderate sensitivity | – | – | – | moderate sensitivity | – | 57 | 41 | 62 | 57 | 41
